Like-named read-outs stand apart in the source and are kept apart here.

Data set [1] can be described thus: Solution stability of the complexes by 1H NMR. The format is physicochemical. The settings on record: pH 0.7, 24 h equilibration, 500 μM. Here is the method:
(§1) Bruker Avance III HD Ascend 500 Plus instrument (Billerica, MA, USA) was used for NMR studies. ^1H NMR spectroscopic measurements were carried out with a WATERGATE water suppression pulse scheme in the presence of 10% (v/v) D2O in most cases. DSS internal standard was added to samples to obtain reference peaks. Complex concentrations were 0.5 mM or 1.0 mM, and 0.5 equiv. HSA was added. ^1H NMR titrations were carried out in the presence of 0.2 M KNO3. With the FHA model peptide, the measurements were performed at 0.5 or 1 mM metal complex concentrations, and 1:1, 1:2 or 2:1 peptide-to-metal complex ratios were applied. The computer program HypSpec was used to obtain stability constants.

Data set [2] deals with human serum albumin (HSA). In words: CD spectroscopy of HSA secondary structure. The format is binding. The following applies: up to 5 equivalents complex, 50% without complex. The protocol: Possible changes in the secondary structure of HSA due to its interaction with the RhCp* and RuCym complexes of HQCl-D-hPro were investigated by CD spectroscopy. HSA is mostly composed of α-helices, and its CD spectrum can be characterized by two negative bands (208 and 222 nm). […] Only at higher complex excess (>10) we observed somewhat larger changes; however, such protein-to-complex ratios are far from the biologically relevant conditions.
CD spectroscopy experiments were performed by a JASCO-J-1500 (ABL&E–JASCO Hungary Ltd., Budapest, Hungary) spectrometer using 0.2 or 1 cm optical path length in the wavelength range from 200 to 250 or to 350 nm. The scanning speed was 200 nm/min. The analytical concentration of HSA and ct-DNA was constant (2 and 98 µM, respectively), and the concentration of the complexes was varied (0–26 and 0–47 µM, respectively).

The nature of data set [3]: Proton dissociation constants of the ligands (pH-potentiometry, UV-vis, 1H NMR titrations). The format is physicochemical. The settings on record: for pKa: aqueous solution, I = 0.2 M KNO3, T = 25.0 °C. The protocol:
pH-potentiometric measurements were carried out at 25.0 ± 0.1 °C in water in the pH range between 2.0 and 11.5 and at a constant ionic strength of 0.2 M KNO3. The titrations were performed in a carbonate-free KOH solution (0.20 M). The exact concentrations of HNO3 and KOH solutions were determined by pH-potentiometric titrations. An Orion 710A pH-meter equipped with a Metrohm combined electrode (type 6.0234.100) and a Metrohm 665 Dosimat burette were used for the pH-potentiometric measurements. […] The average water ionization constant, pKw, was determined as 13.76 ± 0.01, which is in good agreement with the literature data. The initial volume of the samples was 5.0 mL. The ligand concentration was 1.75 or 2.0 mM. Samples were degassed by bubbling purified argon through them for about 10 min prior to the measurements, and the inert gas was also passed over the solutions during the titrations. The computer program Hyperquad2013 [46] was utilized to establish the stoichiometry of the species and to calculate the equilibrium constants, similarly to that performed in our previous works.
Agilent Cary 8454 diode array spectrophotometer was utilized to obtain UV-vis spectra in the wavelength range 190–1100 nm. The path length (ℓ) was 1 cm in most cases (the actual ℓ is always indicated in the legends of the figures). The concentrations of the ligands and complexes were between 88 and 240 µM. For HSA and ct-DNA containing samples, complex concentrations were 100 µM, and 0.5 and 2 equiv. biomolecule were added for kinetic studies, respectively. Individual samples contained 0–20 µM HSA and 0–1.75 mM (nucleotide) ct-DNA. Spectra were always background corrected. The computer program HypSpec was used to obtain stability constants.
as §1

Data set [4] in a line: Distribution coefficients, shake-flask n-octanol/buffered aqueous solution. The format is physicochemical. The following applies: pH 7.4, n-octanol/buffer, in 100 mM KCl, read-out: logD7.4. The protocol: It is worth noting that these amino acid hybrids have excellent water solubility due to their zwitterionic form, unlike most 8-hydroxyquinolines.
Distribution coefficients of the ligands as well as of the complexes were determined at pH = 7.4 using the traditional shake-flask method in n-octanol/buffered aqueous solution (20 mM phosphate) at different chloride ion concentrations (4, 24 and 100 mM) using UV-vis spectrophotometry for the analysis. The measurement and data evaluation were performed as described in our former work.

Regarding `Cc1c(C)c(C)[c-](C)c1C.O=C(O)[C@H]1CCCC[NH+]1Cc1cc(Cl)c2cccnc2c1[O-].[Cl-].[Cl-].[Rh+3]` [RhCp*–HQCl-D-hPro, [RhCp*(HQCl-D-hPro)Cl]Cl], the “fraction of complex dissociated” value in data set [1] is on record as ~ 3%. For the same compound, in data set [2], the “α-helix content of HSA in the presence of the complex” value turned out to be 47%.
Turning to `O=C(O)[C@H]1CCCCN1Cc1cc(Cl)c2cccnc2c1O` [HQCl-D-hPro, (R)-5-chloro-7-((homoproline-1-yl)methyl)8-hydroxyquinoline], the pKa in data set [3] (1H NMR, read-out: pKa (NhPro/ProH+)) was over 11; in data set [3] (1H NMR, read-out: pKa (NqH+)), 2.52 ± 0.03; in data set [3] (1H NMR, read-out: pKa (OH)), 7.54 ± 0.02; in data set [3] (UV-vis, read-out: pKa (NhPro/ProH+)) it was 11.43 ± 0.01; in data set [3] (UV-vis, read-out: pKa (NqH+)), 2.43 ± 0.01; in data set [3] (UV-vis, read-out: pKa (OH)) it was 7.49 ± 0.04. Besides, the pKa is over 11 in data set [3] (pH-potentiometry, read-out: pKa (NhPro/ProH+)); 2.42 ± 0.04 in data set [3] (pH-potentiometry, read-out: pKa (NqH+)); 7.52 ± 0.06 in data set [3] (pH-potentiometry, read-out: pKa (OH)). In data set [3] (at pH 7.4), the “fraction of the negatively charged species (O−, COO−, NhPro/ProH+)” value was 42%. Besides, the logD in data set [4] is 0.36.
For `Cc1ccc(C(C)C)cc1.O=C(O)[C@H]1CCCC[NH+]1Cc1cc(Cl)c2cccnc2c1[O-].[Cl-].[Cl-].[Ru+2]` [RuCym–HQCl-D-hPro, [RuCym(HQCl-D-hPro)Cl]Cl], the “fraction of complex dissociated” value in data set [1] is recorded as ~ 2%. The “α-helix content of HSA in the presence of the complex” value in data set [2] stood at 46%.

The values are drawn from PMC8570331, “8-Hydroxyquinoline-Amino Acid Hybrids and Their Half-Sandwich Rh and Ru Complexes: Synthesis, Anticancer Activities, Solution Chemistry and Interaction with Biomolecules” (International Journal of Molecular Sciences, 2021).
